# Reference: US11390617B2, “Methods of treating non-Hodgkin lymphoma using 2-(2,6-dioxopiperidin-3-yl)-4-((2-fluoro-4-((3-morpholinoazetidin-1-yl)methyl)benzyl)amino)isoindoline-1,3-dione” (Celgene Corporation, priority 2019, dated 2022)
# Legend:
# Assay in all cases: NHL cell line viability/apoptosis 384-well flow cytometry assay
# Format in all cases: cell-based
# [1] = test system: CARNAVAL; details: CARNAVAL (DLBCL), 120 hours
# Protocol: (§1) The following exemplary anti-proliferative assay uses exemplary non-Hodgkin lymphoma (NIL) cell lines (including diffuse large B-cell lymphoma (DLBCL), follicular lymphoma (FL), and mantle cell lymphoma (MCL)) (Table 5). The in vitro growth inhibitory activity of Compound 1 described herein was evaluated using a 384-well flow cytometry assay.
# (§2) The cell lines in Table 5 were plated in 384-well flat bottom plates and assessed with increasing concentrations of compound ranging from 0.00015 to 10 μM or dimethyl sulfoxide (DMSO) control. The final concentration of DMSO was 0.1% (v/v). Following the addition of Compound 1 or DMSO and incubation for 120 hours, cell number and cell death were analyzed by flow cytometry (Attune®, Thermo Fisher) using Annexin V and the live-cell impermeant DNA dye, DRAQ7. Phosphatidylserine translocates from the inner layer to the outer layer of the cell membrane early in apoptosis and Annexin V binds to the exposed phosphatidylserine found on the surface of an apoptotic cell. The vital dye DRAQ7 is excluded by intact live cells and only stains cells that have died as a result of apoptosis or necrosis.
# (§3) Flow cytometry data analysis was then performed using the Flow Jo_v10 software to determine the number of viable cells (Annexin V and DRAQ7 double negative staining cells) and percentage of apoptotic cells (Annexin V positive cells) for each condition. The live cell count for every concentration was normalized to the DMSO control (considered as 100%) to calculate the percentage of viable cells remaining after treatment and graphed using GraphPad Prism 7.03. The IC50 (50% inhibitory concentration) and Emax (maximum efficacy achieved) values were then calculated by performing nonlinear regression curve fitting using log(inhibitor) vs. normalized response—variable slope analysis on GraphPad Prism 7.03. Area under the curve (AUC) was calculated by performing area under curve analysis on GraphPad Prism 7.03. Similarly, for apoptosis analysis, the percentage of apoptosis combining both “early” (Annexin V positive and DRAQ7 negative) and “late” apoptosis (Annexin V and DRAQ7 positive) cell gates relative to DMSO was graphed using GraphPad Prism 7.03. The AUC, EC50 (concentration of Compound 1 that produces half-maximal apoptosis response) and Ymax (maximal percentage of apoptosis achieved) values from apoptosis curves were calculated by performing area under curve analysis and nonlinear regression curve fitting using log(agonist) vs. normalized response—Variable slope analysis on GraphPad Prism 7.03.
# (§4) In Table 6, dose-response proliferation curves for the panel of NHL cell lines and non-linear curve-fit regression were used to determine IC50, AUC, and Emax for % viable cells (Emax for viability varies between 100 at low doses and 0 at high doses, which corresponds to inhibition of all viable cells), and dose-response apoptosis curves were used to determine the EC50, AUC, and Ymax for % apoptosis (Ymax for apoptosis varies from 0 at low doses and 100 at higher doses which corresponds to death of all cells). Tumor cells were exposed to serial dilutions (0.00015 to 10 μM) of Compound 1 or dimethyl sulfoxide (DMSO) control for 5 days. Viability and apoptosis for all cell lines was determined by Annexin V/[…] flow cytometry.
# [2] = test system: WSU-DLCL2; details: WSU-DLCL2 (DLBCL), 120 hours
# Protocol: as §1, §2, §3, §4
# [3] = test system: HT; details: HT (DLBCL), 120 hours
# Protocol: as §1, §2, §3, §4
# [4] = test system: U-2946; details: U-2946 (DLBCL), 120 hours
# Protocol: as §1, §2, §3, §4
# [5] = test system: SU-DHL-5; details: SU-DHL-5 (DLBCL), 120 hours
# Protocol: as §1, §2, §3, §4
# [6] = test system: WILL-2; details: WILL-2 (DLBCL), 120 hours
# Protocol: as §1, §2, §3, §4
# [7] = test system: Farage; details: Farage (DLBCL), 120 hours
# Protocol: as §1, §2, §3, §4
# [8] = test system: KARPAS-422; details: KARPAS-422 (DLBCL), 120 hours
# Protocol: as §1, §2, §3, §4
# [9] = test system: VAL; details: VAL (DLBCL), 120 hours
# Protocol: as §1, §2, §3, §4
# [10] = test system: SU-DHL-10; details: SU-DHL-10 (DLBCL), 120 hours
# Protocol: as §1, §2, §3, §4
# [11] = test system: U-2940; details: U-2940 (DLBCL), 120 hours
# Protocol: as §1, §2, §3, §4
# [12] = test system: ULA; details: ULA (DLBCL), 120 hours
# Protocol: as §1, §2, §3, §4
# [13] = read-out: IC50 (% Viable Cells)
# [14] = Homo sapiens, read-out: IC50 (% Viable Cells)
smiles,measurement,setting,value
"O=C1CC[C@H](N2C(=O)c3cccc(NCc4ccc(CN5CC(N6CCOCC6)C5)cc4F)c3C2=O)C(=O)N1 [Compound 1, (S)-2-(2,6-dioxopiperidin-3-yl)-4-((2-fluoro-4-((3-morpholinoazetidin-1-yl)methyl)benzyl)amino)isoindoline-1,3-dione]",AUC (% Viable Cells),[1],110.6
same,AUC (Apoptosis),[1],708.7
same,EC50,[1],152 nM
same,Emax (% Viable Cells),[1],7.134%
same,Ymax (Apoptosis),[1],77.84%
same,IC50,[1]; [13],9.12 nM
same,EC50,"[2]; Homo sapiens, WSUDLCL2",84.7 nM
same,IC50,"[2]; Homo sapiens, WSUDLCL2, read-out: IC50 (% Viable Cells)",16.9 nM
same,AUC (% Viable Cells),[2],36.7
same,AUC (Apoptosis),[2],858.9
same,Emax (% Viable Cells),[2],1.387%
same,Ymax (Apoptosis),[2],92.1%
same,AUC (% Viable Cells),[3],396.7
same,AUC (Apoptosis),[3],225.3
same,Emax (% Viable Cells),[3],30.39%
same,Ymax (Apoptosis),[3],25.16%
same,EC50,[3]; Homo sapiens,66.2 nM
same,IC50,[3]; [14],319 nM
same,AUC (% Viable Cells),[4],45.47
same,AUC (Apoptosis),[4],762.6
same,EC50,[4],192 nM
same,Emax (% Viable Cells),[4],0.4821%
same,Ymax (Apoptosis),[4],93.34%
same,IC50,[4]; [13],4.6 nM
same,EC50,[5]; Homo sapiens,3.6 nM
same,IC50,[5]; [14],2.39 nM
same,AUC (% Viable Cells),[5],1.873
same,AUC (Apoptosis),[5],934.1
same,Emax (% Viable Cells),[5],0.1398%
same,Ymax (Apoptosis),[5],95.23%
same,AUC (% Viable Cells),[6],17.1
same,AUC (Apoptosis),[6],916.9
same,EC50,[6],89.7 nM
same,Emax (% Viable Cells),[6],0.03115%
same,Ymax (Apoptosis),[6],99.43%
same,IC50,[6]; [13],2.36 nM
same,AUC (% Viable Cells),[7],10.16
same,AUC (Apoptosis),[7],728.7
same,EC50,[7],30.2 nM
same,Emax (% Viable Cells),[7],0.7936%
same,Ymax (Apoptosis),[7],84.17%
same,IC50,[7]; [13],2.38 nM
same,EC50,[8]; Homo sapiens,46.1 nM
same,IC50,[8]; [14],13.1 nM
same,AUC (% Viable Cells),[8],19.97
same,AUC (Apoptosis),[8],911.9
same,Emax (% Viable Cells),[8],0.8721%
same,Ymax (Apoptosis),[8],93.99%
same,AUC (% Viable Cells),[9],14.62
same,AUC (Apoptosis),[9],936.7
same,EC50,[9],0.605 nM
same,Emax (% Viable Cells),[9],0.9632%
same,Ymax (Apoptosis),[9],95.68%
same,IC50,[9]; [13],0.57 nM
same,EC50,"[10]; Homo sapiens, SU-DHL10",39.4 nM
same,IC50,"[10]; Homo sapiens, SU-DHL10, read-out: IC50 (% Viable Cells)",6.1 nM
same,AUC (% Viable Cells),[10],10.36
same,AUC (Apoptosis),[10],903
same,Emax (% Viable Cells),[10],0.6716%
same,Ymax (Apoptosis),[10],92.27%
same,EC50,[11]; Homo sapiens,31.4 nM
same,IC50,[11]; [14],6.31 nM
same,AUC (% Viable Cells),[11],70.43
same,AUC (Apoptosis),[11],792.5
same,Emax (% Viable Cells),[11],5.192%
same,Ymax (Apoptosis),[11],82.19%
same,AUC (% Viable Cells),[12],0.5518
same,AUC (Apoptosis),[12],995.3
same,EC50,[12],1.79 nM
same,Emax (% Viable Cells),[12],0.02523%
same,Ymax (Apoptosis),[12],99.76%
same,IC50,[12]; [13],0.99 nM
